Drawing on patent US9725449B2, “Tricyclic compounds as anticancer agents” (BRISTOL-MYERS SQUIBB COMPANY, priority 2015, dated 2017), this text covers IC50 for 17 compounds.

Molecules are shown by their SMILES.

The target of this experiment is BRD4 (Homo sapiens, UniProt O60885). In words: Time resolved fluorescence resonance energy transfer (TR-FRET) binding assay, bromodomain BRD4. The conditions noted are these: one of the FRET assays described; read-out: FRET BRD4 IC50. Background: In TR-FRET formats the signal depends on donor and acceptor labels being close together.
For `Cc1nnn(C)c1-c1cnc2c3ccc(NC(=O)C(C)C)nc3n([C@H](c3ccccc3F)C3CCOCC3)c2c1` [Example 275, N-[5-(Dimethyl-1H-1,2,3-triazol-5-yl)-8-[(S)-(2-fluorophenyl)(oxan-4-yl)methyl]-3,8,10-triazatricyclo[7.4.0.0^2,^7]trideca-1(13),2(7),3,5,9,11-hexaen-11-yl]-2-methylpropanamide], the IC50 was below 0.01 µM.

Turning to `COC(=O)c1cnc(OC)c2c3ncc(-c4c(C)noc4C)cc3n([C@H](c3ccccc3)C3CCOCC3)c12` [Example 140, Methyl 5-(dimethyl-1,2-oxazol-4-yl)-13-methoxy-8-[(S)-oxan-4-yl(phenyl)methyl]-3,8,12-triazatricyclo[7.4.0.0^2,^7]trideca-1(13),2(7),3,5,9,11-hexaene-10-carboxylate], the IC50 was below 0.001 µM.

As for `Cc1nnn(C)c1-c1cnc2c3ccc(C4=CCN(C)CC4)nc3n([C@H](c3ccccc3F)C3CCOCC3)c2c1` [Example 230, 5-(Dimethyl-1H-1,2,3-triazol-5-yl)-8-[(S)-(2-fluorophenyl)(oxan-4-yl)methyl]-11-(1-methyl-1,2,3,6-tetrahydropyridin-4-yl)-3,8,10-triazatricyclo[7.4.0.0^2,^7]trideca-1(13),2(7),3,5,9,11-hexaene], the IC50 was below 0.01 µM.

For the compound `[2H]C([2H])([2H])c1nnn(C)c1-c1cnc2c3c(NCC(F)F)nccc3n([C@H](c3ccccc3)C3CCOCC3)c2c1` [Example 133, N-(2,2-Difluoroethyl)-5-[4-(^2H3)methyl-1-methyl-1H-1,2,3-triazol-5-yl]-8-[(S)-oxan-4-yl(phenyl)methyl]-3,8,12-triazatricyclo[7.4.0.0^2,^7]trideca-1(13),2(7),3,5,9,11-hexaen-13-amine], the IC50 was below 0.001 µM.

In the case of `[2H]C([2H])([2H])c1nnn(C)c1-c1cnc2c3ccc(Cl)nc3n(C(c3ncccc3F)C3CCOCC3)c2c1` (centres unmarked) [Example 246, 11-Chloro-8-[(3-fluoropyridin-2-yl)(oxan-4-yl)methyl]-5-[4-(^2H3)methyl-1-methyl-1H-1,2,3-triazol-5-yl]-3,8,10-triazatricyclo[7.4.0.0^2,^7]trideca-1(13),2(7),3,5,9,11-hexaene], the IC50 was below 0.01 µM.

With `[2H]C([2H])([2H])c1nnn(C)c1-c1cnc2c3c(OCC(C)C)ncc(S(C)(=O)=O)c3n([C@H](c3ccccc3)C3CCOCC3)c2c1` [Example 108, 10-Methanesulfonyl-5-[4-(^2H3)methyl-1-methyl-1H-1,2,3-triazol-5-yl]-13-(2-methylpropoxy)-8-[(S)-oxan-4-yl(phenyl)methyl]-3,8,12-triazatricyclo[7.4.0.0^2,^7]trideca-1(13),2(7),3,5,9,11-hexaene], the half-maximal inhibitory concentration (IC50) is below 0.01 µM.

Turning to `[2H]C([2H])([2H])c1nnn(C)c1-c1cnc2c3c(Cl)ncc(F)c3n([C@H](c3ccccc3)C3CCOCC3)c2c1` [Example 280, 13-Chloro-10-fluoro-5-[4-(^2H3)methyl-1-methyl-1H-1,2,3-triazol-5-yl]-8-[(S)-oxan-4-yl(phenyl)methyl]-3,8,12-triazatricyclo[7.4.0.0^2,^7]trideca-1(13),2(7),3,5,9,11-hexaene], the IC50 is below 0.01 µM.

Take `[2H]C([2H])([2H])c1nnn(C)c1-c1cnc2c3ccc(N(C)CCNC)nc3n([C@H](c3ccccc3F)C3CCOCC3)c2c1` [Example 236, 8-[(S)-(2-Fluorophenyl)(oxan-4-yl)methyl]-N-methyl-5-[4-(^2H3)methyl-1-methyl-1H-1,2,3-triazol-5-yl]-N-[2-(methylamino)ethyl]-3,8,10-triazatricyclo[7.4.0.0^2,^7]trideca-1(13),2(7),3,5,9,11-hexaen-11-amine]: the half-maximal inhibitory concentration (IC50) was below 0.001 µM.

Regarding `[2H]C([2H])([2H])c1nnn(C)c1-c1cnc2c3c(N(C)C(C)C)ncc(S(C)(=O)=O)c3n([C@H](c3ccccc3)C3CCOCC3)c2c1` [Example 116, 10-Methanesulfonyl-N-methyl-5-[4-(^2H3)methyl-1-methyl-1H-1,2,3-triazol-5-yl]-8-[(S)-oxan-4-yl(phenyl)methyl]-N-(propan-2-yl)-3,8,12-triazatricyclo[7.4.0.0^2,^7]trideca-1(13),2(7),3,5,9,11-hexaen-13-amine], the concentration for half-maximal inhibition (IC50) was below 0.001 µM.

In the case of `[2H]C([2H])([2H])c1nnn(C)c1-c1cnc2c3cnc(OCC4CC4)cc3n([C@H](c3ccccc3)C3CCOCC3)c2c1` [Example 288, 11-(Cyclopropylmethoxy)-5-[4-(^2H3)methyl-1-methyl-1H-1,2,3-triazol-5-yl]-8-[(S)-oxan-4-yl(phenyl)methyl]-3,8,12-triazatricyclo[7.4.0.0^2,^7]trideca-1(9),2(7),3,5,10,12-hexaene], the IC50 is below 0.001 µM.

Take `COc1nccc2c3ncc(-c4c(C)nnn4C)cc3n(C(c3ccc(F)cc3F)C3CCOCC3)c12` (racemic) [Example 25, 8-[(2,4-Difluorophenyl)(oxan-4-yl)methyl]-5-(dimethyl-1H-1,2,3-triazol-5-yl)-10-methoxy-3,8,11-triazatricyclo[7.4.0.0^2,^7]trideca-1(13),2(7),3,5,9,11-hexaene]: the half-maximal inhibitory concentration (IC50) is below 0.01 µM.

In the case of `CCCC(c1ncccc1F)n1c2cc(-c3c(C)nnn3C)ncc2c2ncc(C(C)(C)O)cc21` (single isomer, unassigned) [Example 371], the half-inhibitory concentration (IC50) is below 0.01 µM.

For the compound `Cc1nnn(C)c1-c1cnc2c3ccc(N4CC(O)C4)nc3n([C@H](c3ccccc3)C3CCOCC3)c2c1` [Example 179, 1-[5-(Dimethyl-1H-1,2,3-triazol-5-yl)-8-[(S)-oxan-4-yl(phenyl)methyl]-3,8,10-triazatricyclo[7.4.0.0^2,^7]trideca-1(9),2(7),3,5,10,12-hexaen-11-yl]azetidin-3-ol], the 50% inhibitory concentration (IC50) was below 0.001 µM.

For `[2H]C([2H])([2H])c1nnn(C)c1-c1cnc2c3c(OC)ncc(S(C)(=O)=O)c3n(C(c3c(F)cc(F)cc3F)C3CCOCC3)c2c1` (single isomer, unassigned) [Example 84, 10-Methanesulfonyl-13-methoxy-5-[4-(^2H3)methyl-1-methyl-1H-1,2,3-triazol-5-yl]-8-[oxan-4-yl(2,4,6-trifluorophenyl)methyl]-3,8,12-triazatricyclo[7.4.0.0^2,^7]trideca-1(13),2(7),3,5,9,11-hexaene], the IC50 was below 1.5 µM.

For `[2H]C([2H])([2H])c1nnn(C)c1-c1cnc2c3c(OCC)ncc(S(C)(=O)=O)c3n(C(c3ncccc3F)C3CCC(F)(F)CC3)c2c1` (centres unmarked) [Example 74, 8-[(4,4-Difluorocyclohexyl)(3-fluoropyridin-2-yl)methyl]-13-ethoxy-10-methanesulfonyl-5-[4-(^2H3)methyl-1-methyl-1H-1,2,3-triazol-5-yl]-3,8,12-triazatricyclo[7.4.0.0^2,^7]trideca-1(13),2(7),3,5,9,11-hexaene], the half-inhibitory concentration (IC50) was below 0.01 µM.

For the compound `CC(=O)c1cnc2c3ccc(-c4c(C)nnn4C)nc3n([C@H](c3ccccc3)C3CCOCC3)c2c1` [Example 379], the half-inhibitory concentration (IC50) was below 0.001 µM.

In the case of `[2H]C([2H])([2H])c1nnn(C)c1-c1cnc2c3c(NCC(F)(F)F)cncc3n(C(c3ncccc3F)C3CCOCC3)c2c1` (centres unmarked) [Example 303, 8-[(3-Fluoropyridin-2-yl)(oxan-4-yl)methyl]-5-[4-(^2H3)methyl-1-methyl-1H-1,2,3-triazol-5-yl]-N-(2,2,2-trifluoroethyl)-3,8,11-triazatricyclo[7.4.0.0^2,^7]trideca-1(9),2(7),3,5,10,12-hexaen-13-amine], the IC50 was below 0.01 µM.

Usually IC50 stands for the concentration that inhibits the measured activity by half.
